# Read-outs that look alike come from different tables or passages of the source.
# Experiment: Pharmacokinetics (plasma and urine) of ascending multiple oral doses in healthy volunteers
# Assay type: in vivo, human
# Details: for Intra-subject CV % of AUC(0-τ) / Intra-subject CV % of Cmax: ANOVA, data from Days 10 and 14; for Vd/F / half-life / AUC(0-inf) / Cmax / concentration at 24 h / Tmax / AUC / CL renal / CL renal at 14 days: both sexes, human, oral; for Vd/F: read-out: Vz/F; for Cmax: read-out: Cmax; for concentration at 24 h: read-out: Ctrough; for AUC: τ = 24 hours (N = 8), read-out: AUC(0-τ); for CL renal / CL renal at 14 days: urine, read-out: CLR (renal clearance of drug)
# Description: Subjects: Forty healthy male and female subjects between the ages of 20 and 50 were enrolled in the study. All subjects were in good health as determined by a medical history, physical examination, 12-lead ECG, serum biochemistry, hematology, urinalysis and virology. Subjects were not permitted to take any prescribed medication within 30 days or non-prescribed medication within 7 days of the first dose administration.
# Study Design: This study was a randomized, double-blind, placebo-controlled, ascending-dose trial to evaluate the safety, tolerability and pharmacokinetics (PK) of multiple oral doses of Compound I. Subjects were enrolled into 1 of the 4 cohorts, 10 subjects per cohort (active:placebo=8:2). Subjects received a multiple oral dose of 25, 50, 100, or 200 mg unformulated Compound I in a capsule, or matching placebo, once daily (QD) for 14 days.
# Assessments: Safety and tolerability were assessed by adverse event (AE) monitoring, clinical laboratory testing, vital sign measurement, 12-lead ECG measurement, concomitant medication assessment, and physical examination. Blood and urine samples were collected to assess the PK profile of Compound I and the S-cis isomer of Compound I. Blood samples (˜5 mL) for plasma PK analysis were collected in K2-EDTA vacutainer tubes to yield approximately 2 mL of plasma at each of the following time points: (i) Day 1: before dosing, and 0.25, 0.5, 1, 1.5, 2, 2.5, 3, 4, 6, 8, 10, 12, 16, and 24 hours after dosing; (ii) Day 3 to Day 9: before dosing; (iii) Day 10: before dosing, and 0.25, 0.5, 1, 1.5, 2, 2.5, 3, 4, 6, 8, 10, 12, and 16 hours after dosing; (iv) Day 11 to Day 13: before dosing; (v) Day 14: before dosing, and 0.25, 0.5, 1, 1.5, 2, 2.5, 3, 4, 6, 8, 10, 12, 16, 24, 48, 72, 96, 120, 144, and 168 hours after dosing. Urine samples for the PK analysis were collected as a single block at: (i) Day 1: before dosing (spot collection), 0 to 8, 8 to 16, and 16 to 24 hours after dosing; and (ii) Day 14: 0 to 8, 8 to 16, and 16 to 24 hours after dosing. Both plasma and urine concentrations of Compound I and its S-cis isomer were measured using validated liquid chromatography-tandem mass spectrometry (LC/MS/MS).
# Data Analysis: Safety data were summarized using descriptive statistics by treatment. PK parameters for Compound I and its S-cis isomer were calculated using non-compartmental analysis using WinNonlin (Version 5.0.1 or greater; Pharsight Corporation, Mountain View, Calif.). Dose proportionality and dose independence were evaluated by visual inspection. Intra-subject variability was assessed using an ANOVA model using data from Days 10 and 14.
# [1] = 25 mg QD, Day 1, urine (n = 8), geometric mean
# [2] = 25 mg QD, Day 14, plasma (N = 8), geometric mean
# [3] = 25 mg QD, Day 14, urine (n = 8), geometric mean
# [4] = 50 mg QD, Day 1, urine (n = 8), geometric mean
# [5] = 50 mg QD, Day 14, plasma (N = 8), geometric mean
# [6] = 50 mg QD, Day 14, urine (n = 8), geometric mean
# [7] = 100 mg QD, Day 1, urine (n = 8), geometric mean
# [8] = 100 mg QD, Day 14, plasma (N = 8), geometric mean
# [9] = 100 mg QD, Day 14, urine (n = 8), geometric mean
# [10] = 200 mg QD, Day 1, urine (n = 8), geometric mean
# [11] = 200 mg QD, Day 14, plasma (N = 8), geometric mean
# [12] = 200 mg QD, Day 14, urine (n = 8), geometric mean
# [13] = plasma, 25 mg, 25 mg QD, Day 1, plasma, healthy subjects (N = 8), geometric mean
# [14] = plasma, 25 mg, 25 mg QD, Day 14, plasma, healthy subjects (N = 8), geometric mean
# [15] = plasma, 50 mg, 50 mg QD, Day 1, plasma, healthy subjects (N = 8), geometric mean
# [16] = plasma, 50 mg, 50 mg QD, Day 14, plasma, healthy subjects (N = 8), geometric mean
# [17] = plasma, 100 mg, 100 mg QD, Day 1, plasma, healthy subjects (N = 8), geometric mean
# [18] = plasma, 100 mg, 100 mg QD, Day 14, plasma, healthy subjects (N = 8), geometric mean
# [19] = plasma, 200 mg, 200 mg QD, Day 1, plasma, healthy subjects (N = 8), geometric mean
# [20] = plasma, 200 mg, 200 mg QD, Day 14, plasma, healthy subjects (N = 8), geometric mean
smiles,measurement,setting,value
"O[C@H]1CC[C@H](Nc2ncc3nc(Nc4c(F)cc(F)cc4F)n([C@H]4CCOC4)c3n2)CC1 [Compound I, 4-((9-((3S)-tetrahydro-3-furanyl)-8-((2,4,6-trifluorophenyl)amino)-9H-purin-2-yl)amino)-trans-cyclohexanol]",Ae (amount of drug excreted in urine),[1],1.3 mg
same,fe (percentage of dose excreted in urine),[1],5.2%
same,CL/F,[2],95 mL/min
same,RA (ratio of accumulation),[2],1.9
same,Ae (amount of drug excreted in urine),[3],3.5 mg
same,fe (percentage of dose excreted in urine),[3],14.0%
same,Intra-subject CV % of AUC(0-τ),25 mg QD,7.0%
same,Intra-subject CV % of Cmax,25 mg QD,10.2%
same,Ae (amount of drug excreted in urine),[4],3.0 mg
same,fe (percentage of dose excreted in urine),[4],5.9%
same,CL/F,[5],85 mL/min
same,RA (ratio of accumulation),[5],2.2
same,Ae (amount of drug excreted in urine),[6],6.9 mg
same,fe (percentage of dose excreted in urine),[6],13.9%
same,Intra-subject CV % of AUC(0-τ),50 mg QD,8.4%
same,Intra-subject CV % of Cmax,50 mg QD,5.7%
same,Ae (amount of drug excreted in urine),[7],5.3 mg
same,fe (percentage of dose excreted in urine),[7],5.3%
same,CL/F,[8],130 mL/min
same,RA (ratio of accumulation),[8],1.8
same,Ae (amount of drug excreted in urine),[9],11.9 mg
same,fe (percentage of dose excreted in urine),[9],11.9%
same,Intra-subject CV % of AUC(0-τ),100 mg QD,15.7%
same,Intra-subject CV % of Cmax,100 mg QD,23.7%
same,Ae (amount of drug excreted in urine),[10],5.0 mg
same,fe (percentage of dose excreted in urine),[10],2.5%
same,CL/F,[11],146 mL/min
same,RA (ratio of accumulation),[11],1.5
same,Ae (amount of drug excreted in urine),[12],11.7 mg
same,fe (percentage of dose excreted in urine),[12],5.8%
same,Intra-subject CV % of AUC(0-τ),200 mg QD,14.0%
same,Intra-subject CV % of Cmax,200 mg QD,18.3%
same,accumulation at steady state,"Day 10 and Day 14, QD dosing",approximately 2 fold
same,"intra-subject variability of AUCss,(0-τ)",Days 10 and 14,less than 20%
same,steady state reached (trough plasma concentrations),QD dosing,6 days
same,Vd/F,[2],256 L
same,half-life,"25 mg QD, Day 14, plasma (N = 8), geometric mean, read-out: t1/2 (converted)",1860 min
same,Vd/F,[5],193 L
same,half-life,"50 mg QD, Day 14, plasma (N = 8), geometric mean, read-out: t1/2 (converted)",1560 min
same,Vd/F,[8],338 L
same,half-life,"100 mg QD, Day 14, plasma (N = 8), geometric mean, read-out: t1/2 (converted)",1800 min
same,Vd/F,[11],328 L
same,half-life,"200 mg QD, Day 14, plasma (N = 8), geometric mean, read-out: t1/2 (converted)",1560 min
same,AUC(0-inf),"plasma, 25 mg, 25 mg QD, Day 1, plasma (N = 8), geometric mean",4260 ng·h/mL
same,Cmax,[13],212 ng/mL
same,concentration at 24 h,[13],55 ng/mL
same,Tmax,"plasma, 25 mg, 25 mg QD, Day 1, plasma, healthy subjects (N = 8), median, read-out: tmax",2.3 h
same,AUC,"plasma, 25 mg, 25 mg QD, Day 1, plasma, geometric mean",2270 ng·h/mL
same,AUC(0-inf),"plasma, 25 mg, 25 mg QD, Day 14, plasma (N = 8), geometric mean",10200 ng·h/mL
same,Cmax,[14],328 ng/mL
same,concentration at 24 h,[14],130 ng/mL
same,Tmax,"plasma, 25 mg, 25 mg QD, Day 14, plasma, healthy subjects (N = 8), median, read-out: tmax",2 h
same,AUC,"plasma, 25 mg, 25 mg QD, Day 14, plasma, geometric mean",4400 ng·h/mL
same,AUC(0-inf),"plasma, 50 mg, 50 mg QD, Day 1, plasma (N = 8), geometric mean",7750 ng·h/mL
same,Cmax,[15],406 ng/mL
same,concentration at 24 h,[15],125 ng/mL
same,Tmax,"plasma, 50 mg, 50 mg QD, Day 1, plasma, healthy subjects (N = 8), median, read-out: tmax",2.3 h
same,AUC,"plasma, 50 mg, 50 mg QD, Day 1, plasma, geometric mean",4560 ng·h/mL
same,AUC(0-inf),"plasma, 50 mg, 50 mg QD, Day 14, plasma (N = 8), geometric mean",21300 ng·h/mL
same,Cmax,[16],740 ng/mL
same,concentration at 24 h,[16],282 ng/mL
same,Tmax,"plasma, 50 mg, 50 mg QD, Day 14, plasma, healthy subjects (N = 8), median, read-out: tmax",2 h
same,AUC,"plasma, 50 mg, 50 mg QD, Day 14, plasma, geometric mean",9810 ng·h/mL
same,AUC(0-inf),"plasma, 100 mg, 100 mg QD, Day 1, plasma (N = 8), geometric mean",12200 ng·h/mL
same,Cmax,[17],637 ng/mL
same,concentration at 24 h,[17],183 ng/mL
same,Tmax,"plasma, 100 mg, 100 mg QD, Day 1, plasma, healthy subjects (N = 8), median, read-out: tmax",2 h
same,AUC,"plasma, 100 mg, 100 mg QD, Day 1, plasma, geometric mean",7300 ng·h/mL
same,AUC(0-inf),"plasma, 100 mg, 100 mg QD, Day 14, plasma (N = 8), geometric mean",31600 ng·h/mL
same,Cmax,[18],880 ng/mL
same,concentration at 24 h,[18],400 ng/mL
same,Tmax,"plasma, 100 mg, 100 mg QD, Day 14, plasma, healthy subjects (N = 8), median, read-out: tmax",1.8 h
same,AUC,"plasma, 100 mg, 100 mg QD, Day 14, plasma, geometric mean",12800 ng·h/mL
same,AUC(0-inf),"plasma, 200 mg, 200 mg QD, Day 1, plasma (N = 8), geometric mean",27000 ng·h/mL
same,Cmax,[19],1440 ng/mL
same,concentration at 24 h,[19],375 ng/mL
same,Tmax,"plasma, 200 mg, 200 mg QD, Day 1, plasma, healthy subjects (N = 8), median, read-out: tmax",1.8 h
same,AUC,"plasma, 200 mg, 200 mg QD, Day 1, plasma, geometric mean",15100 ng·h/mL
same,AUC(0-inf),"plasma, 200 mg, 200 mg QD, Day 14, plasma (N = 8), geometric mean",48400 ng·h/mL
same,Cmax,[20],1740 ng/mL
same,concentration at 24 h,[20],643 ng/mL
same,Tmax,"plasma, 200 mg, 200 mg QD, Day 14, plasma, healthy subjects (N = 8), median, read-out: tmax",1.8 h
same,AUC,"plasma, 200 mg, 200 mg QD, Day 14, plasma, geometric mean",22800 ng·h/mL
same,half-life,"plasma, 25-200 mg QD for 14 days, read-out: mean terminal half-life (t1/2)",1500 to 1860 min
same,Tmax,"plasma, 25-200 mg QD for 14 days, read-out: median tmax",1 to 2 h
same,CL renal,"25 mg, 25 mg QD, Day 1, urine (n = 8), geometric mean",9.5 mL/min
same,CL renal at 14 days,"25 mg, 25 mg QD, Day 14, urine (n = 8), geometric mean",13.3 mL/min
same,CL renal,"50 mg, 50 mg QD, Day 1, urine (n = 8), geometric mean",10.9 mL/min
same,CL renal,"50 mg, 50 mg QD, Day 14, urine (n = 8), geometric mean",11.8 mL/min
same,CL renal,"100 mg, 100 mg QD, Day 1, urine (n = 8), geometric mean",12 mL/min
same,CL renal,"100 mg, 100 mg QD, Day 14, urine (n = 8), geometric mean",15.4 mL/min
same,CL renal,"200 mg, 200 mg QD, Day 1, urine (n = 8), geometric mean",5.5 mL/min
same,CL renal at 14 days,"200 mg, 200 mg QD, Day 14, urine (n = 8), geometric mean",8.5 mL/min

# — US8603527B2, “Pharmaceutical formulations of a substituted diaminopurine” (Signal Pharmaceuticals, LLC, priority 2010, dated 2013)
